Converted amounts (≈) assume the structure as drawn. Read-outs that look alike come from different tables or passages of the source.

Experiment [1] has as its target T1, porcine pancreatic elastase (Sus scrofa, UniProt P00772).
T1 construct: purchased EPC EC134
The experiment is described as follows: Porcine pancreatic elastase inhibition assay. In kind it is biochemical. The settings on record: for IC50: substrate concentration near Km (1.5 mM N-succinyl-Ala-Ala-Ala-p-nitroanilide), read-out: Porcine pancreatic elastase inhibitory activity IC50. As for the experimental part:
(§1) The test samples for 1-6 were prepared in DMSO by (log/2)-fold dilutions ranging from 1 mM to 100 pM. All assays were performed in triplicate. Phenylmethylsulfonyl fluoride (PMSF) was used as a positive control in the enzyme assays.
To test the inhibition of porcine pancreatic elastase (Elastase-high purity; EPC, EC134), 75 μg/mL solution of elastase was prepared using Tris-HCl (pH 8.0). […] After preincubation of 165 μL of Tris-HCl (pH 8.0), 10 μL of elastase solution, and 10 μL of test samples in DMSO (5% final concentration) in a microtiter plate at 30° C. for 20 min, 15 μL of substrate solution (1.5 mM final concentration) was added to the mixture. The increase in absorbance was measured for 30 min at intervals of 5 min at 405 nm. Competitive binding was determined by plotting enzyme activity against substrate concentrations in the presence of different inhibitor concentrations (Lineweaver-Burk plot).

Experiment [2] has as its target T2, α-chymotrypsin (bovine pancreas) (Bos taurus, UniProt P00766).
T2 construct: purchased Sigma C4129
The experiment is described as follows: α-Chymotrypsin inhibition assay. The format is biochemical. The settings on record: substrate concentration near Km (0.75 mM N-succinyl-Gly-Gly-Phe-p-nitroanilide). As for the experimental part:
as §1
(§2) Inhibitory activity against α-chymotrypsin (bovine pancreas; Sigma, C4129) was determined as follows. A 1-mg/mL solution of chymotrypsin was prepared in assay buffer (50 mM Tris-HCl/100 mM NaCl/1 mM CaCl2, pH 7.8). […] The increase in absorbance was measured for 30 min at intervals of 5 min at 405 nm.

The subject of experiment [3] is HT29 colon adenocarcinoma cells. Nature of the experiment: MTT-based cell viability assessment. The settings on record: highest concentration tested (50 μM). As for the experimental part: The effects of compounds 5 and 6 on the proliferation of cancer cells was also assessed.
Experiment [4] concerns the target T3, trypsin from porcine pancreas (Sus scrofa, UniProt P00761).
T3 construct: purchased Sigma T0303
Nature of the experiment: Trypsin inhibition assay. The format is biochemical. As for the experimental part: as §1, §2
Inhibitory activity against trypsin was assayed as described above for chymotrypsin, using trypsin from porcine pancreas (Sigma, T0303) and Nα-benzoyl-DL-arginine-4-nitroanilide hydrochloride as the substrate solution.

The subject of experiment [5] is trypsin. The settings on record: cited from earlier work.
The target of experiment [6] is elastase (Sus scrofa, UniProt P00772). The note with it: literature, cited from earlier work.
Chain of elastase (P00772 27-266): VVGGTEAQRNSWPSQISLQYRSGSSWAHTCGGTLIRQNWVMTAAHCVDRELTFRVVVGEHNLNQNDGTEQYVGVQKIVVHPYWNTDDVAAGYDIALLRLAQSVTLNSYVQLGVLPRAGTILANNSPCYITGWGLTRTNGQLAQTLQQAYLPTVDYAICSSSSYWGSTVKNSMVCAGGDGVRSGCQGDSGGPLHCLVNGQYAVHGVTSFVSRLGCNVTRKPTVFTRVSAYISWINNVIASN
The subject of experiment [7] is chymotrypsin. The note with it: literature, Amp-containing compound; cited from earlier work.

T1 sequence (P00772 27-266): as above
T3 sequence (P00761 9-231): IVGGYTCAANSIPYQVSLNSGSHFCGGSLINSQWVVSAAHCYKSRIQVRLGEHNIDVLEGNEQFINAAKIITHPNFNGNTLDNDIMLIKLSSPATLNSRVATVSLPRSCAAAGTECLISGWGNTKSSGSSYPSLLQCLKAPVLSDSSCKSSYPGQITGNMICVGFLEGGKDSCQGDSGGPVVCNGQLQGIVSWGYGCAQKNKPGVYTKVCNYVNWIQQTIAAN

What is called IC50 is the concentration needed to halve the response being measured. As to `C/C=C1\NC(=O)C(NC(=O)C(CCc2ccc(O)cc2)NC(=O)C(C)NC(=O)C(O)CO)C(C)OC(=O)C(C(C)C)NC(=O)C(Cc2ccc(O)cc2)N(C)C(=O)C(Cc2ccccc2)N2C(=O)C(CCC2O)NC1=O` (stereo not shown) [Compound 1, Lyngbyastatin 5], the half-inhibitory concentration (IC50) was 3.2 ± 2 nM in experiment [1] and 2800 ± 300 nM in experiment [2].
The like results for `C/C=C1\NC(=O)[C@@H](NC(=O)[C@H](CCc2ccc(O)cc2)NC(=O)[C@H](C)NC(=O)[C@H](O)COS(=O)(=O)O)[C@@H](C)OC(=O)[C@H](C(C)C)NC(=O)[C@H](Cc2ccc(O)cc2)N(C)C(=O)[C@H](Cc2ccccc2)N2C(=O)[C@H](CC[C@H]2OC)NC1=O` [Compound 2, Lyngbyastatin 6] were, in that order, 3.3 ± 0.8 nM and 2500 ± 800 nM.
On to `C/C=C1\NC(=O)C(NC(=O)C(CCC(N)=O)NC(=O)CCC)C(C)OC(=O)C(C(C)C)NC(=O)C(Cc2ccc(O)cc2)N(C)C(=O)C(Cc2ccccc2)N2C(=O)C(CCC2O)NC1=O` (stereo not shown) [Compound 4, somamide B, reference compound], for which the 50% inhibitory concentration (IC50) is 9.5 ± 5.2 nM in experiment [1] and 4200 ± 500 nM in experiment [2].
On to `CC(=O)N1CCC[C@H]1C(=O)N[C@H](C(=O)N[C@@H]1C(=O)N[C@@H](CC(C)C)C(=O)NC2CC[C@@H](O)N(C2=O)[C@@H](Cc2ccccc2)C(=O)N(C)C(Cc2ccc(O)cc2)C(=O)N[C@@H](C(C)C)C(=O)O[C@@H]1C)[C@@H](C)O` (stereo partly shown) [Compound 5, Kempopeptin A], for which the “effect on growth of HT29 cells” value in experiment [3] is on record as “did not significantly affect the growth”. Further, in experiment [1], the “elastase inhibition and selectivity over chymotrypsin” value was “inhibited elastase with a slight selectivity over chymotrypsin”.
Take `CCCC(=O)N[C@H](C(=O)N[C@@H]1C(=O)N[C@@H](CCCCN)C(=O)N[C@H]2CC[C@@H](O)N(C2=O)[C@@H]([C@@H](C)CC)C(=O)N(C)[C@@H](Cc2ccc(OC)c(Br)c2)C(=O)N[C@@H](C(C)C)C(=O)O[C@@H]1C)C(C)C` [Compound 6, Kempopeptin B]: the “effect on growth of HT29 cells” value in experiment [3] is listed as “did not significantly affect the growth”. The results for the “trypsin inhibition, selectivity versus elastase and chymotrypsin” value in experiment [4] and in experiment [4] (listed as kempopeptin B) were “selective in vitro trypsin inhibition” and “inhibited only trypsin activity”, respectively.
Consider `C/C=C1\NC(=O)C(NC(=O)C(CCc2ccc(O)cc2)NC(=O)C(C)NC(=O)C(O)COS(=O)(=O)O)C(C)OC(=O)C(C(C)C)NC(=O)C(Cc2ccc(O)cc2)N(C)C(=O)C(Cc2ccccc2)N2C(=O)C(CCC2O)NC1=O` (stereo not shown) [lyngbyastatin 4], for which the “trypsin activity upon treatment, previous findings” value in experiment [5] (previous publication (J. Nat. Prod. 2007, 70, 124-127)) is given as “unaffected”.
With `CCCCCC(=O)N[C@@H](CC(=O)O)C(=O)N[C@@H]1C(=O)N[C@@H](CCCCN)C(=O)N[C@H]2CC[C@@H](O)N(C2=O)[C@@H]([C@@H](C)CC)C(=O)N(C)[C@@H](Cc2ccc(O)cc2)C(=O)N[C@@H](C(C)C)C(=O)O[C@@H]1C` [micropeptin SD944], in experiment [5] (literature value), the IC50 against trypsin was 8.0 µg/mL (≈ 8.46 µM).
As for oscillapeptin C, in experiment [6] (Amp-containing compound), the elastase inhibition entry is given as “does not inhibit elastase”. Also, the chymotrypsin inhibition entry in experiment [7] is reported as “still inhibits chymotrypsin”.
For planktopeptin BL843, the “protease-inhibitory activity compared with the other planktopeptins” value in experiment [6] is recorded as “one order of magnitude lower”.
